From patent US11541055B2, “Inhibitors of human immunodeficiency virus replication” (ViiV Healthcare UK (No. 5) LIMITED, priority 2018, dated 2023)

Assays:
[1] = system: recombinant NL4-3 virus (Renilla luciferase) in MT-2 cells; assay: HIV cell culture assay (antiviral activity, luciferase readout); assay type: cell-based; details: Renilla, NL43
Protocol: HIV cell culture assay—MT-2 cells, 293T cells and the proviral DNA clone of NL4-3 virus were obtained from the NIH AIDS Research and Reference Reagent Program. MT-2 cells were propagated in RPMI 1640 media supplemented with 10% heat inactivated fetal bovine serum (FBS), […]. The 293T cells were propagated in DMEM media supplemented with 10% heat inactivated FBS, […] penicillin G and […] streptomycin. A recombinant NL40.3 proviral clone, in which a section of the nef gene was replaced with the Renilla luciferase gene, was used to make the reference virus used in these studies. The recombinant virus was prepared through transfection of the recombinant NL4-3 proviral clone into 293T cells using Transit-293 Transfection Reagent from Minis Bio LLC (Madison, Wis.). Supernatent was harvested after 2-3 days and the amount of virus present was titered in MT-2 cells using luciferase enzyme activity as a marker by measuring luciferase enzyme activity. Luciferase was quantitated using the EnduRen Live Cell Substrate from Promega (Madison, Wis.). Antiviral activities of compounds toward the recombinant virus were quantified by measuring luciferase activity in MT-2 cells infected for 4-5 days with the recombinant virus in the presence of serial dilutions of the compound.
The 50% effective concentration (EC50) was calculated by using the exponential form of the median effect equation where (Fa)=1/[1+(ED50/drug conc.)m] (Johnson V A, Byington R T. Infectivity Assay. In Techniques in HIV Research. ed. Aldovini A, Walker B D. 71-76. New York: Stockton Press. 1990). The 50% inhibitory concentration (EC50) was calculated by using the exponential form of the median effect equation where percent inhibition=1/[1+(EC50/drug concentration)m], where m is a parameter that reflects the slope of the concentration-response curve.

[2] = Compound cytotoxicity, XTT-based colorimetric assay; assay type: cell-based; details: human; uninfected MT2 cells, day 4, XTT
Protocol: Compound cytotoxicity and the corresponding CC50 values were determined using the same protocol as described in the antiviral assay except that uninfected cells were used. Cytotoxicity was assessed on day 4 in uninfected MT2 cells by using a XTT (2,3-bis[2-Methoxy-4-nitro-5-sulfophenyl]-2H-tetrazolium-5-carboxyanilide inner salt)-based colorimetric assay (Sigma-Aldrich, St Louis, Mo.).

SMILES	EC50 [1]	CC50 at 4 days [2]
Cc1cc(C(F)(F)F)nc(-c2ccc3c(=O)n(-c4ccc(Cl)c5c(NS(C)(=O)=O)nn(C)c45)c([C@H](Cc4cc(F)cc(F)c4)NC(=O)Cn4nc(C(F)F)c5c4C(F)(F)[C@@H]4C[C@H]54)nc3c2)n1 [Example 53, N—((S)-1-((3P)-3-(4-chloro-1-methyl-3-(methylsulfonamido)-1H-indazol-7-yl)-7-(4-methyl-6-(trifluoromethyl)pyrimidin-2-yl)-4-oxo-3,4-dihydroquinazolin-2-yl)-2-(3,5-difluorophenyl)ethyl)-2-((3bS,4aR)-3-(difluoromethyl)-5,5-difluoro-3b,4,4a,5-tetrahydro-1H-cyclopropa[3,4]cyclopenta[1,2-c]pyrazol-1-yl)acetamide]	0.16 nM	> 500 nM
CS(=O)(=O)Nc1nn(CC(F)(F)F)c2c(-n3c([C@H](Cc4cc(F)cc(F)c4)NC(=O)Cn4nc(C(F)F)c5c4C(F)(F)[C@@H]4C[C@H]54)nc4cc(-c5cccnn5)ccc4c3=O)ccc(Cl)c12 (atropisomer, axis not shown) [Example 107, N-[(1S)-1-{3-[4-chloro-3-methanesulfonamido-1-(2,2,2-trifluoroethyl)-1H-indazol-7-yl]-4-oxo-7-(pyridazin-3-yl)-3,4-dihydroquinazolin-2-yl}-2-(3,5-difluoropheny)ethyl]-2-[(2S,4R)-9-(difluoromethyl)-5,5-difluoro-7,8-diazatricyclo[4.3.0.0^2,^4]nona-1(6),8-dien-7-yl]acetamide]	0.048 nM	> 500 nM
Cn1nc(NS(C)(=O)=O)c2c(Cl)ccc(-n3c([C@H](Cc4cc(F)cc(F)c4)NC(=O)Cn4nc(C(F)F)c5c4C(F)(F)[C@@H]4C[C@H]54)nc4cc(-c5ccnnc5)ccc4c3=O)c21 (atropisomer, axis not shown; (P)) [Example 31, N—((S)-1-((3P)-3-(4-chloro-1-methyl-3-(methylsulfonamido)-1H-indazol-7-yl)-4-oxo-7-(pyridazin-4-yl)-3,4-dihydroquinazolin-2-yl)-2-(3,5-difluorophenyl)ethyl)-2-((3bS,4aR)-3-(difluoromethyl)-5,5-difluoro-3b,4,4a,5-tetrahydro-1H-cyclopropa[3,4]cyclopenta[1,2-c]pyrazol-1-yl)acetamide]	0.29 nM	> 500 nM
Cc1nc(C)c(C)c(-c2ccc3c(=O)n(-c4ccc(Cl)c5c(NS(=O)(=O)C6CC6)nn(CC(F)F)c45)c([C@H](Cc4cc(F)cc(F)c4)NC(=O)Cn4nc(C(F)F)c5c4C(F)(F)[C@@H]4C[C@H]54)nc3c2)n1 (atropisomer, axis not shown; (P)) [Example 92, N—((S)-1-((3P)-3-(4-chloro-3-(cyclopropanesulfonamido)-1-(2,2-difluoroethyl)-1H-indazol-7-yl)-4-oxo-7-(2,5,6-trimethylpyrimidin-4-yl)-3,4-dihydroquinazolin-2-yl)-2-(3,5-difluorophenyl)ethyl)-2-((3bS,4aR)-3-(difluoromethyl)-5,5-difluoro-3b,4,4a,5-tetrahydro-1H-cyclopropa[3,4]cyclopenta[1,2-c]pyrazol-1-yl)acetamide]	0.1 nM	> 500 nM
Cn1nc(NS(C)(=O)=O)c2c(Cl)ccc(-n3c([C@H](Cc4cc(F)cc(F)c4)NC(=O)Cn4nc(C(F)F)c5c4C(F)(F)[C@@H]4C[C@H]54)nc4cc(-c5ccccc5C(F)(F)F)ccc4c3=O)c21 (atropisomer, axis not shown; (P)) [Example 24, N—((S)-1-((3P)-3-(4-chloro-1-methyl-3-(methylsulfonamido)-1H-indazol-7-yl)-4-oxo-7-(2-(trifluoromethyl)phenyl)-3,4-dihydroquinazolin-2-yl)-2-(3,5-difluorophenyl)ethyl)-2-((3bS,4aR)-3-(difluoromethyl)-5,5-difluoro-3b,4,4a,5-tetrahydro-1H-cyclopropa[3,4]cyclopenta[1,2-c]pyrazol-1-yl)acetamide]	0.84 nM	> 500 nM
COc1ccc(-c2ccc3c(=O)n(-c4ccc(Cl)c5c(NS(C)(=O)=O)nn(C)c45)c([C@H](Cc4cc(F)cc(F)c4)NC(=O)Cn4nc(C(F)F)c5c4C(F)(F)[C@@H]4C[C@H]54)nc3c2)c(C)n1 (atropisomer, axis not shown; (P)) [Example 5, N—((S)-1-((3P)-3-(4-chloro-1-methyl-3-(methylsulfonamido)-1H-indazol-7-yl)-7-(6-methoxy-2-methylpyridin-3-yl)-4-oxo-3,4-dihydroquinazolin-2-yl)-2-(3,5-difluorophenyl)ethyl)-2-((3bS,4aR)-3-(difluoromethyl)-5,5-difluoro-3b,4,4a,5-tetrahydro-1H-cyclopropa[3,4]cyclopenta[1,2-c]pyrazol-1-yl)acetamide]	0.94 nM	> 500 nM
COc1cnc(-c2ccc3c(=O)n(-c4ccc(Cl)c5c(NS(=O)(=O)C6CC6)nn(CC(F)F)c45)c([C@H](Cc4cc(F)cc(F)c4)NC(=O)Cn4nc(C(F)F)c5c4C(F)(F)[C@@H]4C[C@H]54)nc3c2)nc1 (atropisomer, axis not shown) [Example 98, N-[(1S)-1-{3-[4-chloro-3-cyclopropanesulfonamido-1-(2,2-difluoroethyl)-1H-indazol-7-yl]-7-(5-methoxypyrimidin-2-y1)-4-oxo-3,4-dihydroquinazolin-2-yl}-2-(3,5-difluorophenyl)ethyl]-2-[(2S,4R)-9-(difluoromethyl)-5,5-difluoro-7,8-diazatricyclo[4.3.0.0^2,^4]nona-1(6),8-dien-7-yl]acetamide]	0.16 nM	> 500 nM
COc1ncc(-c2ccc3c(=O)n(-c4ccc(Cl)c5c(NS(C)(=O)=O)nn(CC(F)(F)F)c45)c([C@H](Cc4cc(F)cc(F)c4)NC(=O)Cn4nc(C(F)F)c5c4C(F)(F)[C@@H]4C[C@H]54)nc3c2)cn1 (atropisomer, axis not shown) [Example 116, N-[(1S)-1-{3-[4-chloro-3-methanesulfonamido-1-(2,2,2-trifluoroethyl)-1H-indazol-7-yl]-7-(2-methoxypyrimidin-5-yl)-4-oxo-3,4-dihydroquinazolin-2-yl}-2-(3,5-difluorophenyl)ethyl]-2-[(2S,4R)-9-(difluoromethyl)-5,5-difluoro-7,8-diazatricyclo[4.3.0.0^2,^4]nona-1(6),8-dien-7-yl]acetamide]	0.072 nM	> 500 nM
Cn1nc(NS(C)(=O)=O)c2c(Cl)ccc(-n3c([C@H](Cc4cc(F)cc(F)c4)NC(=O)Cn4nc(C(F)F)c5c4C(F)(F)[C@@H]4C[C@H]54)nc4cc(-c5ncccc5C(F)(F)F)ccc4c3=O)c21 (atropisomer, axis not shown; (P)) [Example 30, N—((S)-1-((3P)-3-(4-chloro-1-methyl-3-(methylsulfonamido)-1H-indazol-7-yl)-4-oxo-7-(3-(trifluoromethyl)pyridin-2-yl)-3,4-dihydroquinazolin-2-yl)-2-(3,5-difluorophenyl)ethyl)-2-((3bS,4aR)-3-(difluoromethyl)-5,5-difluoro-3b,4,4a,5-tetrahydro-1H-cyclopropa[3,4]cyclopenta[1,2-c]pyrazol-1-yl)acetamide]	0.22 nM	> 500 nM
CCc1cc(C)nc(-c2ccc3c(=O)n(-c4ccc(Cl)c5c(NS(C)(=O)=O)nn(C)c45)c([C@H](Cc4cc(F)cc(F)c4)NC(=O)Cn4nc(C(F)F)c5c4C(F)(F)[C@@H]4C[C@H]54)nc3c2)n1 (atropisomer, axis not shown; (P)) [Example 36, N—((S)-1-((3P)-3-(4-chloro-1-methyl-3-(methylsulfonamido)-1H-indazol-7-yl)-7-(4-ethyl-6-methylpyrimidin-2-yl)-4-oxo-3,4-dihydroquinazolin-2-yl)-2-(3,5-difluorophenyl)ethyl)-2-((3bS,4aR)-3-(difluoromethyl)-5,5-difluoro-3b,4,4a,5-tetrahydro-1H-cyclopropa[3,4]cyclopenta[1,2-c]pyrazol-1-yl)acetamide]	0.087 nM	> 500 nM
CCc1ccnc(-c2ccc3c(=O)n(-c4ccc(Cl)c5c(NS(C)(=O)=O)nn(CC(F)(F)F)c45)c([C@H](Cc4cc(F)cc(F)c4)NC(=O)Cn4nc(C(F)F)c5c4C(F)(F)[C@@H]4C[C@H]54)nc3c2)n1 (atropisomer, axis not shown) [Example 111, N-[(1S)-1-{3-[4-chloro-3-methanesulfonamido-1-(2,2,2-trifluoroethyl)-1H-indazol-7-yl]-7-(4-ethylpyrimidin-2-yl)-4-oxo-3,4-dihydroquinazolin-2-yl}-2-(3,5-difluorophenyl)ethyl]-2-[(2S,4R)-9-(difluoromethyl)-5,5-difluoro-7,8-diazatricyclo[4.3.0.0^2,^4]nona-1(6),8-dien-7-yl]acetamide]	0.11 nM	> 500 nM
